In this test the target is T1, FABP7 (Brain fatty acid binding protein) (Homo sapiens, UniProt O15540).
T1 sequence (O15540 2-132): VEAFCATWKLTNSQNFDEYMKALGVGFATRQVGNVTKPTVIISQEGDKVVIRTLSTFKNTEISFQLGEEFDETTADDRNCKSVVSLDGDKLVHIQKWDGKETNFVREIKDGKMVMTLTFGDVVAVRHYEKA
Put plainly: microscale thermophoresis.

3 molecules from article doi:10.1101/2021.10.22.465361v1 (biorxiv, 2021) can be followed below.

SMILES strings stand for the structures.

Consider `CCCCCCCC/C=C\CCCCCCCC(=O)O` [OA, oleic acid], for which the Kd is about 500 nM.
Regarding `CCCCCCCCCCCCCCCCCC(=O)O` [SA, stearic acid], the Kd was about 500 nM.
In turn, `CC/C=C\C/C=C\C/C=C\C/C=C\C/C=C\C/C=C\CCC(=O)O` [DHA, docosahexaenoic acid] registered an equilibrium dissociation constant (Kd) of about 500 nM.
